Results on one molecule are retold here after patent US11253594B2, “Drug combinations for protecting against neuronal cell death” (UNIVERSITY OF PITTSBURGH-OF THE COMMONWEALTH SYSTEM OF …, priority 2017, dated 2022).

Data set [1] has as its system STHdh^Q111 cells. The experiment in a line: 384-well PI (propidium iodide) assay, protection from mHTT induced cell death. Type of data set: cell-based, mouse. To be noted: compound titrations, serum deprived STHdh^Q111 cells. The protocol:
The well-established STHdh^Q111 cell model for HD was employed to identify compounds that can protect neuronal cells from mHTT-dependent cell death. […] The propidium iodide (PI) readout enables an unbiased assessment of cell death by measuring an irreversible step that is common to all cytotoxic mechanisms.
The stress conditions for testing compounds involved incubation of the cells in serum-free medium at 37° C. and 5% CO2.
Prior to compound treatment, medium was removed and the cells washed once with PBS (pH=7.4) after which 45 μl of complete medium was added. Compounds in 5 μl complete medium were added to cells. […] Compounds in serum free medium (5 μl) were added and cells were incubated at 37° C. and 5% CO2.
Image analysis was carried out using the Multiwavelength Cell Scoring application in the MetaXpress software. The nuclear compartment was identified in Ch1 with a threshold intensity of 2,000 above background and the Texas Red compartment was identified in Ch2 with a threshold intensity of 20,000 above background.
For the analyses presented here the Percent Recovery was calculated from the Percent PI positive cells by:
[formula] where positive controls are the STHdh^Q7 cells, and negative controls are the STHdh^Q111 cells treated with DMSO
The LOPAC library was screened in the 384-well PI assay at 30, 10, and 3 μM.

Data set [2] relates to cells expressing mHTT. The experiment in a line: Example 2 screen of a larger mechanistically diverse chemical library for protection from mHTT-induced cytotoxicity.

Take `CCCn1c(C)c(C(=O)c2cccc3ccccc23)c2ccccc21` [JWH-015]: the “neuroprotective activity in the PI assay” value in data set [1] is listed as “confirmed neuroprotective activity”. Further, in data set [2], the “protection from mHTT-induced cytotoxicity in the screen” value is recorded as “demonstrating protection”.
